Data from US20030220201A1, “Method and device for the generation of cyclopropene compounds” (priority 2002, published 2003).

Legend:
Format in all cases: physicochemical
[1] = Release of 1-MCP from 1-MCP/α-CD complex in water, Comparative 1 (mix every 5 min.); conditions: 50 g 0.14% complex in 250 ml water, swirling 30 seconds every 5 minutes, no pump
Protocol: (§1) Fifty grams of 0.14% concentration of 1-MCP/α-CD complex in powdered form was placed into a 1000 ml beaker which also contained 250 ml of water. Into the beaker was also placed a Mini Jet® MN404 submersible pump (available from IPSD, Inc., San Diego, Calif.) which was set at a flow rate of approximately 200 liters/hour. This system was then placed into a 36 liter Plexiglas airtight chamber fitted with a septum for inserting a syringe for gas sampling. The temperature was set at 22° C.
(§2) After the chamber was sealed, the pump was turned on, creating a fountain-type flow in the beaker. The atmosphere of the chamber was sampled periodically to monitor the release of 1-MCP. The analysis was performed by gas chromatography using a flame ionization detector.
(§3) This procedure was repeated twice without using the pump for comparison purposes. The first comparison involved mixing the powdered suspension by swirling the contents of the beaker for 30 seconds, every 5 minutes. The second comparison involved using a 2 inch magnetic stir bar and a stir plate instead a pump to constantly mix the suspension.

[2] = Release of 1-MCP by gas sparge, small scale (Example 2); conditions: 50 g 0.14% complex in 250 ml water, air 100 liters/hour
Protocol: Fifty grams of a 0.14% 1-MCP/α-CD complex in powdered form was placed into a 600 ml beaker which contained 250 ml of water. Also present in the beaker is a 10 inch long segment of Bubble Wall air diffusers (IPSD, Inc. San Diego, Calif.). This was connected to a Tetratec® air pump (Tetra Co., Blacksburg, Va.) via flexible connective tubing. The pump was set at a rate of 100 liters/hour. This system was then placed in a 36 liter Plexiglas airtight chamber fitted with a septum for inserting a syringe for gas sampling.
After the chamber was sealed, the pump was turned on to sparge gas through the aqueous suspension. The air in the chamber was sampled periodically to determine the rate of 1-MCP released. Analysis was performed by gas chromatography using a flame ionization detector.

[3] = Release of 1-MCP from 1-MCP/α-CD complex in water, fountain pump (Example 1); conditions: 50 g 0.14% 1-MCP/α-CD complex in 250 ml water, pump approx. 200 liters/hour, 22° C.
Protocol: as §1, §2

[4] = Release of 1-MCP by gas sparge, large scale, 3.3% complex, conical bottom vessel (Example 4); conditions: 182 g 3.3% complex in 8 liters water, air 204 liters/hour, 22° C.
Protocol: One hundred eighty two grams of a 3.3% concentration of a 1-MCP/α-CD powder complex was placed in an 11 liter plastic vessel having a conical shaped bottom (at a 60 degree angle from horizontal). To the vessel was then added 8 liters of water. The vessel was fitted with a Kordon Mist Air® fine air diffuser (Novalek, Inc., Hayward, Calif.) hooked to a Sensidyne AP060SEEF60C1 air pump (available from Sensidyne Inc., Clearwater, Fla. which was set at a pumping rate of 204 liters of air/hour. The vessel was covered and then fitted with an outlet tube through which all of the vented air passed. The temperature was set at 22° C.
After the pump was turned on, the exiting air was sampled periodically for 1-MCP content. Analysis was by gas chromatography using a flame ionization detector.

[5] = Release of 1-MCP by gas sparge, large scale, 0.14% complex (Example 3); conditions: 3400 g 0.14% complex in 11 liters water, air 400 liters/hour, 22° C.
Protocol: Thirty four hundred grams of a 0.14% 1-MCP/α-CD complex in powdered form was placed into a 20 liter plastic vessel containing 11 liters of water and a 56 inch segment of a Bubble Wall air diffuser (IPSD, Inc., San Diego, Calif.). The air diffuser is hooked to a Pro Gold® Profile 400 air pump via flexible connective tubing. The pump was set at the rate of 400 liters of air/hour. The temperature was set at 22° C.
The vessel was covered and fitted with an outlet tube through which all of the escaping air had to pass. After the pump was turned on, the air exiting the vessel was sampled periodically for 1-MCP content. Analysis was by gas chromatography using a flame detector.

[6] = Release of 1-MCP from 1-MCP/α-CD complex in water, Comparative 2 (stir bar); conditions: 50 g 0.14% complex in 250 ml water, constant magnetic stir bar, no pump
Protocol: as §1, §2, §3

CC1=CC1 [1-MCP, 1-methylcyclopropene]
Percent 1-MCP Released Comparative 1 (mix every 5 min.) ([1]; Time 0.17): 4%
Percent 1-MCP Released Comparative 1 (mix every 5 min.) ([1]; Time 0.42): 6%
Percent 1-MCP Released Comparative 1 (mix every 5 min.) ([1]; Time 1.0): 9%
Percent 1-MCP Released Comparative 1 (mix every 5 min.) ([1]; Time 3.0): 14%
Percent 1-MCP Released Comparative 1 (mix every 5 min.) ([1]; Time 4.0): 16%
Percent 1-MCP Released Comparative 1 (mix every 5 min.) ([1]; Time 5.5 (hours)): 17%
Percent 1-MCP Released (gas sparge) ([2]; Time 0.17 Hrs): 42%
Percent 1-MCP Released (gas sparge) ([2]; Time 0.42 Hrs): 58%
Percent 1-MCP Released (gas sparge) ([2]; Time 0.75 Hrs): 75%
Percent 1-MCP Released (gas sparge) ([2]; Time 1.0 Hrs): 83%
Percent 1-MCP Released (gas sparge) ([2]; Time 2.0 Hrs): 92%
Percent 1-MCP Released Fountain Pump ([3]; Time 0.08): 14%
Percent 1-MCP Released Fountain Pump ([3]; Time 0.17): 43%
Percent 1-MCP Released Fountain Pump ([3]; Time 0.42): 57%
Percent 1-MCP Released Fountain Pump ([3]; Time 1.0): 79%
Percent 1-MCP Released Fountain Pump ([3]; Time 1.5): 86%
Percent 1-MCP Released Fountain Pump ([3]; Time 2.5 (hours)): 90%
Percent 1-MCP Released (gas sparge) ([4]; Time 1.0 hrs.): 85%
Percent 1-MCP Released (gas sparge) ([4]; Time 1.85 hrs.): 100%
Percent 1-MCP Released (gas sparge) ([5]; Time 0.17 hrs.): 12%
Percent 1-MCP Released (gas sparge) ([5]; Time 0.33 hrs.): 29%
Percent 1-MCP Released (gas sparge) ([5]; Time 0.5 hrs.): 48%
Percent 1-MCP Released (gas sparge) ([5]; Time 0.75 hrs.): 70%
Percent 1-MCP Released (gas sparge) ([5]; Time 1.0 hrs.): 84%
Percent 1-MCP Released (gas sparge) ([5]; Time 1.25 hrs.): 92%
Percent 1-MCP Released (gas sparge) ([5]; Time 1.5 hrs.): 96%
Percent 1-MCP Released (gas sparge) ([5]; Time 2.0 hrs.): 100%
Percent 1-MCP Released Comparative 2 (stir bar) ([6]; Time 0.17): 4%
Percent 1-MCP Released Comparative 2 (stir bar) ([6]; Time 0.42): 6%
Percent 1-MCP Released Comparative 2 (stir bar) ([6]; Time 1.0): 9%
Percent 1-MCP Released Comparative 2 (stir bar) ([6]; Time 1.5): 14%
Percent 1-MCP Released Comparative 2 (stir bar) ([6]; Time 2.5): 21%
Percent 1-MCP Released Comparative 2 (stir bar) ([6]; Time 5.5 (hours)): 43%
